Experimental data: patent publication US11608324B2, “Solid forms of fasoracetam” (The Children's Hospital of Philadelphia, priority 2018, dated 2023)

Assays:
[1] = Hygroscopicity (statement); type: physicochemical
[2] = Solubility curve in ethyl acetate (Crystal16); type: physicochemical; conditions: FIG. 10
Description: FIG. 7 is the x-ray powder diffraction of the R-fasoracetam monohydrate Form I starting material used in this Example 1, and FIG. 8 is the corresponding DSC thermogram of that starting material. A solubility curve was constructed for the cocrystal in ethyl acetate with the results plotted in FIG. 10 (from the data collected in Example 1) using a Crystal16 device from Technobis Crystallization Systems. The samples were created from the cocrystal without adding any additional water or other constituents. The samples were heated at a rate of 1°/15 minutes.

[3] = Thermogravimetric analysis (TGA), thermal stability; type: physicochemical
Experimental: TGA measurements were carried out on a METTLER TOLEDO TGA/SDTA 851e. Samples were placed in open aluminum oxide crucible. All experiments were performed under nitrogen flow.
A TGA plot can be found at FIG. 6. The sample was equilibrated at 30.0° C. for five minutes prior to ramping. A heating rate of 5° C. per minute was used from 30.0° C. to 350.0° C. No significant weight loss was observed until temperatures greater than 180° C. were recorded.

[4] = subjects having a genetic alteration in an mGluR network gene; cited from earlier work
[5] = system: metabotropic glutamate receptor (mGluR), all classes; conditions: Hirouchi M, et al. (2000); WO2017/044491; cited from earlier work

Question: For O=C1CC[C@H](C(=O)N2CCCCC2)N1 [R-fasoracetam anhydrate], which hygroscopicity [1] is on record?
Answer: hygroscopic

Question: Which results are given for Nc1ccc(C(=O)O)cc1.O=C1CC[C@H](C(=O)N2CCCCC2)N1 [R-fasoracetam:PABA cocrystal]?
Answer: solubility as compared with R-fasoracetam monohydrate Form I [2]: approximately three-fold lower; thermal stability by TGA, stable up to ([3]; TGA, FIG. 6): about 200 °C; temperature until which no significant weight loss was observed (TGA) ([3]; heating rate 5° C. per minute from 30.0° C. to 350.0° C.): greater than 180 °C

Question: Which “treatment outcome in ADHD” value [4] does the source give for O=C1CC[C@H](C(=O)N2CCCCC2)N1 [fasoracetam] here?
Answer: successfully treated

Question: And the “activity against mGluRs in vitro” value [5]?
Answer: nonselective activator against all classes of mGluRs
